Laboratory results published in US8436004B2, “Bicycloaniline derivative” (MSD K.K., priority 2007, dated 2013).
Structures can show the parent of a compound that is named as a salt.

Test system: Human colon cancer cells WiDr
Assay: Tumor growth inhibitory effect, WiDr subcutaneous xenograft in nude rats
Type: in vivo, F344/N Jcl-rnu nude rats
Conditions: gemcitabine 5 mg/kg i.v. days 0, 7, 14, Example 1 15 mg/kg oral days 1, 8, 15, n=5
Procedure: Pharmacological Test 4 (Tumor Growth Inhibitory Effect)
Human colon cancer cells WiDr (obtained from ATCC) were implanted into the subcutaneous area of the back of F344/N Jcl-rnu nude rats. 12 days after the implantation, 5 mg/kg of gemcitabine (Gemzar, from Eli Lily) was intravenously administered to them; and after 24 hours, a test compound suspended in a solvent (0.5% methyl cellulose) was orally administered thereto. This was repeated once a week for 3 weeks. The tumor volume (0.5×major diameter×(minor diameter)^2) was measured on days 0, 3, 6, 10, 13, 17, 20, 24 and 27 (the first gemcitabine administration is on day 0). The relative tumor volume was calculated, based on the tumor volume on day 0, as 1. The tumor growth rate (% T/C) was obtained according to the formulae mentioned below.
In case where the tumor volume change from day 0 in the test compound administration group is more than 0 (>0): % T/C=(tumor volume change in the test compound group on days 3, 6, 10, 13, 17, 20, 24 and 27/tumor volume change in the control group on days 3, 6, 10, 13, 17, 20, 24 and 27)×100. In case where the tumor volume change from day 0 in the test compound administration group is less than 0 (<0): % T/C=(tumor volume change in the test compound group on days 3, 6, 10, 13, 17, 20, 24 and 27/tumor volume […] in the test compound group on day 0)×100.
Gemcitabine was administered on days 0, 7 and 14. The compound of Example 1 was administered on days 1, 8 and 15.

## CN1Cc2cc(Nc3ncc4c(=N)n(-c5c(Cl)cccc5Cl)c(=O)[nH]c4n3)ccc2C2(CC2)C1 [Example 1, 3-(2,6-dichlorophenyl)-4-imino-7-[(2′-methyl-2′,3′-dihydro-1′H-spiro[cyclopropane-1,4′-isoquinolin]-7′-yl)amino]-3,4-dihydropyrimido[4,5-d]pyrimidin-2(1H)-one dihydrochloride]
Day 3
  % T/C day 3: 107%
Day 6
  % T/C day 6: 100%
Day 10
  % T/C day 10: 87%
Day 13
  % T/C day 13: 91%
Day 17
  % T/C day 17: 88%
Day 20
  % T/C day 20: 85%
Day 24
  % T/C day 24: 83%
Day 27
  % T/C day 27: 88%
